Columns and labels:
human skin fibroblasts = assay: Procollagen type I C-peptide (PIP) secretion of UVB-irradiated human skin fibroblasts (EIA kit); assay type: cell-based; conditions: 100 μM each; UVB 20 mJ/cm^2; 24 hours culture; mean of three wells
Description: Primary dermal fibroblasts (normal, human, neonatal, ATCC No. PCS-201-010) were purchased from ATCC (Manassas, Va., USA). The purchased cells were incubated in a 5% CO2 incubator at 37° C. by using a fibroblast growth medium (Promo Cell, Heidelberg) and used in experiments.
To examine collagen biosynthesis ability, human fibroblasts were distributed into a 12 well-plate at a concentration of 1.0×10^6 cells/well, α-ionone and vitamin C were added thereto at a concentration of 100 μM each, and the resulting human fibroblasts were incubated in a CO2 incubator for 24 hours. After removing the medium from each well, the plate was washed once with PBS, and 1 ml of PBS was added thereto, followed by irradiation with ultraviolet B (UVB) at a dose of 20 mJ/cm^2. The PBS of each well was replaced by a medium and the human fibroblasts were cultured for 24 hours, and then the amount of procollagen secreted into the medium was measured using a procollagen type C-peptide EIA kit (Takara Bio, Japan). A standard solution included in the collagen measurement kit was diluted according to concentration, absorbance was measured at 450 nm to create a standard concentration curve, and the amount of collagen produced was calculated. […]

[1] = Body weights and food intakes of hairless mice fed experimental diets; assay type: in vivo, albino hairless mice (Skh-1); conditions: 0.2% in AIN-93 diet for 10 weeks; UVB-irradiated hairless mice
Source text: (§1) 5-week-old female albino hairless mice (Skh-1) used in the present example were purchased from ORIENTBIO (Gyeonggi-do, Korea) and subjected to an adaptation period of 1 week with solid feed. The experimental animal was divided into 4 groups and 5 mice were assigned to each group. All the experimental groups were divided into a normal control not irradiated with ultraviolet rays (−UVB), a group irradiated with ultraviolet rays (+UVB), and a group irradiated with ultraviolet rays and treated with α-ionone (αIO) or vitamin C (VitC). During a rearing period, the experimental groups were freely fed feed and water, temperature and humidity were maintained at 22±1° C. and 60±5%, a light period and a dark period were adjusted every day to 12 hours.
(§2) The −UVB and +UVB groups were fed a purified diet formulated based on the AIN-93 rodent diet composition (Ree yes, P G et al., J Nutr, 123:1939-1951, 1993) for 10 weeks, the αIO group were fed an AIN-93 purified diet with 0.2% of α-ionone (Sigma-Aldrich) for 10 weeks, and the VitC group was fed a diet, prepared by adding 0.2% of vitamin C (Sigma-Aldrich) to the AIN-93 purified diet, for 10 weeks. The diets were supplied daily with water between 10 am and 11 am, and food intakes were measured daily.
(§3) During the experimental rearing period, dorsal parts of the hairless mice were irradiated with UVB three times a week, and the amount of ultraviolet radiation was 73 mJ/cm^2 for the first one week, 146 mJ/cm^2 for the second week, and 219 mJ/cm^2 for the third week to the tenth week. During rearing, body weights and skin thicknesses of the experimental groups were measured weekly, and images of dorsal skin parts thereof were taken. The skin thicknesses of buttocks of the hairless mice were measured using a digital micro caliper (Marathon Watch Company Ltd, Ontario, Canada).

[2] = tested on: skin tissues of ultraviolet rays-irradiated hairless mice; assay: Skin moisture content, moisture evaporation, elasticity and erythema index of UVB-irradiated hairless mice (Corneometer, Tewameter, Cutometer, Mexameter); assay type: in vivo, albino hairless mice (Skh-1); conditions: 0.2% in diet for 10 weeks; UVB three times a week; last day
Source text: as §1, §2, §3
Skin moisture content, moisture evaporation, elasticity, and the erythema index of each of the experimental animal groups were measured once on the last day of the experiment using Corneometer®, Tewameter®, Cutometer®, and Mexameter® (Courage+Khazaka electronic GmbH), respectively. During the measurement, the value obtained by lightly pressing a certain portion of the experimental animal or the like was recorded.

[3] = tested on: dorsal skin of ultraviolet rays-irradiated hairless mice; assay: Wrinkle formation on dorsal skin of UVB-irradiated hairless mice (images, silicone replica, image analyzer); assay type: in vivo, albino hairless mice (Skh-1); conditions: 0.2% in diet for 10 weeks
Source text: as §1, §2, §3
The skin of each hairless mouse irradiated with ultraviolet rays for 10 weeks was replicated using silicone rubber and a degree of the formation of wrinkles was measured. A disk with a circular hole having a diameter of 1 cm was attached to a dorsal part of the hairless mouse, reagents for preparing a replica were mixed, the mixed resultant was thinly spread on the dorsal art of the hairless mouse and completely dried, and then the disk was carefully detached therefrom, thereby completing the preparation of the replica. The replica was prepared at a temperature of about 20° C. to about 23° C. and a humidity of about 45% to about 50% under constant temperature and constant humidity conditions, a silicon rubber impression material (Epigem, Seoul, Korea) for preparing a replica was used. To analyze the prepared replica, four wrinkle indexes, such as a total wrinkle area, a maximum wrinkle depth, a mean depth, and a mean length were analyzed using a computer image analyzer (Visioline VL650, Courage+Khazaka electronic GmbH, Germany).

[4] = tested on: skin of UV-irradiated hairless mice; assay: Skin thickness of UV-irradiated hairless mice (digital micro caliper); assay type: in vivo, albino hairless mice (Skh-1); conditions: last day, 0.2% in diet for 10 weeks
Source text: as §1
as §2, with “daily. […]” for “daily.”

[5] = tested on: skin epidermis layer of UV-irradiated hairless mice; assay: Skin epidermis layer thickness by H&E staining; assay type: in vivo, albino hairless mice (Skh-1); conditions: 0.2% in diet for 10 weeks; UVB for 10 weeks
Source text: as §1
as §2, with “daily. […]” for “daily.”

[6] = tested on: collagen fibers in dermis layers of UV-irradiated hairless mice; assay: Collagen fibers in dermis layer by Masson's trichrome staining; assay type: in vivo, albino hairless mice (Skh-1); conditions: 0.2% in diet for 10 weeks; UVB for 10 weeks
Source text: as §1
as §2, with “daily. […]” for “daily.”

[7] = tested on: Collagen type I alpha1 (Col1α1); assay: RT-PCR gene expression in dorsal skin tissue: Col1α1; assay type: in vivo, albino hairless mice (Skh-1); conditions: 0.2% in diet for 10 weeks
Source text: as §1
as §2, with “daily. […]” for “daily.”

[8] = tested on: Collagen type I alpha2 (Col1α2); assay: RT-PCR gene expression in dorsal skin tissue: Col1α2; assay type: in vivo, albino hairless mice (Skh-1); conditions: 0.2% in diet for 10 weeks
Source text: as §1
as §2, with “daily. […]” for “daily.”

[9] = tested on: Collagen type III alpha1 (Col3α1); assay: RT-PCR gene expression in dorsal skin tissue: Col3α1; assay type: in vivo, albino hairless mice (Skh-1); conditions: 0.2% in diet for 10 weeks
Source text: as §1
as §2, with “daily. […]” for “daily.”

[10] = tested on: Matrix metallopeptidase 1a (MMP-1a); assay: RT-PCR gene expression in dorsal skin tissue: MMP-1a; assay type: in vivo, albino hairless mice (Skh-1); conditions: 0.2% in diet for 10 weeks
Source text: as §1
as §2, with “daily. […]” for “daily.”

[11] = tested on: Matrix metallopeptidase 1b (MMP-1b); assay: RT-PCR gene expression in dorsal skin tissue: MMP-1b; assay type: in vivo, albino hairless mice (Skh-1); conditions: 0.2% in diet for 10 weeks
Source text: as §1
as §2, with “daily. […]” for “daily.”

[12] = tested on: Matrix metallopeptidase 3 (MMP-3); assay: RT-PCR gene expression in dorsal skin tissue: MMP-3; assay type: in vivo, albino hairless mice (Skh-1); conditions: 0.2% in diet for 10 weeks
Source text: as §1
as §2, with “daily. […]” for “daily.”

[13] = tested on: Matrix metallopeptidase 9 (MMP-9); assay: RT-PCR gene expression in dorsal skin tissue: MMP-9; assay type: in vivo, albino hairless mice (Skh-1); conditions: 0.2% in diet for 10 weeks
Source text: as §1
as §2, with “daily. […]” for “daily.”

[14] = in vivo; cited from earlier work
rats = conditions: 32 rats, orally 10 mg/day for 8 weeks; cited from earlier work
[15] = tested on: microorganisms harmful to the human body; conditions: Findic et al 2009; cited from earlier work
[16] = replica, computer image analyzer

CC(=O)/C=C/C1C(C)=CCCC1(C)C (stereo not drawn) [α-ionone, (3E)-4-(2,6,6-trimethylcyclohex-2-en-1-yl)but-3-en-2-one]
increase in the amount of collagen (procollagen type I C-peptide secreted) compared to control cells irradiated with ultraviolet rays alone (+UVB) (human skin fibroblasts): 37%
effect on body weights [1]: no significant effect
effect on food intakes [1]: no significant effect
decrease in erythema index compared to the +UVB control [2]: 26%
decrease in moisture evaporation compared to the +UVB control [2]: 46%
increase in elasticity of skin tissue compared to the +UVB control [2]: 77%
increase in moisture content of skin tissue compared to the +UVB control [2]: 78%
degree of formation of wrinkles in silicone rubber replica compared to the +UVB control ([3]; UVB for 10 weeks): significant improvement on the thickness and depth of wrinkles
skin wrinkles in images of dorsal skin (naked eye) compared to the +UVB control ([3]; UVB for 10 weeks): significant decrease in the thickness and depth of wrinkles
decrease in maximum wrinkle depth compared to the +UVB control [3, 16]: 49%
decrease in mean depth of wrinkles compared to the +UVB control [3, 16]: 39%
decrease in mean length of wrinkles compared to the +UVB control [3, 16]: 68%
decrease in total wrinkle area compared to the +UVB control [3, 16]: 60%
decrease in skin thickness compared to the +UVB control [4]: 19%
thickness of the thickened epidermis layer due to UV irradiation (H&E staining) [5]: significant decrease
collagen fibers of the dermis layer (Masson's trichrome, aniline blue) compared to the control irradiated alone [6]: relatively more compact and regularly arranged
expression of collagen type 1α1 compared to the +UVB control [7]: significant increase
expression of collagen type 1α2 compared to the +UVB control [8]: significant increase
expression of collagen type 3α1 compared to the +UVB control [9]: significant increase
expression of MMP-1a gene compared to the +UVB control [10]: significant decrease
expression of MMP-1b gene compared to the +UVB control [11]: significant decrease
expression of MMP-3 gene compared to the +UVB control [12]: significant decrease
expression of MMP-9 gene compared to the +UVB control [13]: significant decrease

O=C1O[C@H]([C@@H](O)CO)C(O)=C1O [vitamin C, reference compound]
increase in the amount of collagen (procollagen type I C-peptide secreted) compared to control cells irradiated with ultraviolet rays alone (+UVB) (human skin fibroblasts): 37%
effect on body weights [1]: no significant effect
effect on food intakes [1]: no significant effect

ionone
LD50 [14]: 2 g/kg body weight
toxicity after oral administration (rats): no toxicity was shown
antimicrobial activity [15]: strong antimicrobial activity
